These results are taken from patent publication US11135203B2, “Forazolines, compositions thereof and uses thereof” (Wisconsin Alumni Research Foundation, priority 2013, dated 2021).

Series [1] in a line: Synergy studies with amphotericin B (AMB). To be noted: combination with amphotericin B. The class given is cell-based.
Series [2] concerns Saccharomyces cerevisiae deletion mutant strains. The experiment in a line: Chemical genomic profiling against deletion mutant yeast strains. To be noted: for sensitivity of mutant LEM3-Δ: chemical genomic profile of known antifungal agents. The class given is cell-based. The method, then: This method has been used to explore the mechanism of action for bioactive compounds, including natural products. Forazoline A was screened against over four thousand deletion mutant yeast strains, genomic DNA was extracted, and mutant-specific DNA barcodes were amplified and sequenced by Illumina sequencing. Forazoline A sensitive and resistant mutants were determined by quantification of DNA-barcodes, which provided a chemical genomic profile used to evaluate the mechanism of action.

Series [3] in a line: Water solubility. Format: physicochemical.
Series [4] concerns Candida albicans K1. The experiment in a line: Neutropenic murine disseminated candidiasis model, kidney organism burden. Format: in vivo. To be noted: Candida albicans K1, single dose 2.5, 0.78 and 0.125 mg/kg, after 8 hours. The text has this:
(§1) Animals. Six-week-old ICR Swiss specific-pathogen-free female mice weighing 23 to 27 g were used for all studies. Animals were maintained in accordance with the American Association for Accreditation of Laboratory Care criteria. Animal studies were approved by the University of Wisconsin Animal Care Committee.
Infection model. A neutropenic, murine, disseminated candidiasis model was used for the treatment studies. Mice were rendered neutropenic (polymorphonuclear cell counts of <100 mm^3) by injecting cyclophosphamide subcutaneously 4 days before infection (150 mg/kg of body weight) and 1 day before infection (100 mg/kg). Candida albicans K1 was subcultured on Sabouraud dextrose agar (SDA) 24 h prior to infection. The inocula were prepared by placing three to five colonies into 5 ml of sterile 0.15 M NaCl warmed to 35° C. The final inoculum was adjusted to 0.6 transmittance at 530 nm. Fungal counts of the inocula determined by viable counts on SDA were 5.63±0.38 log10 CFU/mL (mean±standard deviation).
Disseminated infection with C. albicans organisms was produced by injection of 0.1 ml of the inoculum via the lateral tail vein 2 h prior to the start of antifungal therapy. At the end of the study period (8 h), animals were sacrificed by CO2 asphyxiation. […] The results are expressed as the mean and standard deviation of the log10 CFU/kidney from three mice. […]

The nature of series [5]: Toxic effects observed in treated mice of the candidiasis model. The class given is in vivo. To be noted: neutropenic mice, 2.5, 0.78 and 0.125 mg/kg, 8 hours. The method, then: as §1
Drug Treatment. […] The intravenous dose was given by the lateral tail vein via a 200 μL infusion. The intraperitoneal dose was administered in 500 μL volume. Control mice were treated with saline. Groups of mice were sacrificed at the start of therapy and 8 hours after therapy for determination of organism burden in the kidney as described above.

For the molecule `CO[C@H]1[S+]([O-])C2=CC(=O)[C@](C)(O[C@H]3CC[C@H](N(C)C)[C@@H](C)O3)[C@@H](O)CCC(C)=C[C@@H]3[C@@H](C)[C@](C)(Cl)[C@@H](C[C@H]3O[C@H]3CC[C@H](N(C)C)[C@@H](C)O3)OC(=O)[C@@H]3CSC(=N3)[C@]1(C)N2` (some centres unmarked) [Forazoline A], in series [1], the “interaction when tested with AMB” value is “synergy”. Also, the “gene enrichment of top sensitive mutant strains (P<0.0001)” value in series [2] (GO: 0045332, P=0.0009, driven by LEM3 and FPK1 deletion mutants) is reported as “significantly enriched for genes involved in phospholipid translocation”. The water solubility result in series [3] is reported as “about 5 mg/mL”. The “reduction in organism burden compared to control mice” value in series [4] is given as 1.5+/−0.12 log10 cfu/kidney. For the same molecule, the “toxic effects from the compound” value in series [5] is “No toxic effects”.
Take `C[C@@H]1[C@H](O)[C@@H](C)/C=C/C=C/C=C/C=C/C=C/C=C/C=C/[C@H](O[C@@H]2O[C@H](C)[C@@H](O)[C@H](N)[C@@H]2O)C[C@@H]2O[C@](O)(C[C@@H](O)C[C@@H](O)[C@H](O)CC[C@@H](O)C[C@@H](O)CC(=O)O[C@H]1C)C[C@H](O)[C@H]2C(=O)O` [amphotericin, amphotericin B]: the “sensitivity of mutant LEM3-Δ” value in series [2] is listed as “not among the most sensitive strains”.
On to `CC[C@H](C)C[C@H](C)CCCCCCCCC(=O)N[C@H]1C[C@@H](O)[C@@H](NCCN)NC(=O)[C@@H]2[C@@H](O)CCN2C(=O)[C@H]([C@H](O)CCN)NC(=O)[C@H]([C@H](O)[C@@H](O)c2ccc(O)cc2)NC(=O)[C@@H]2C[C@@H](O)CN2C(=O)[C@H]([C@@H](C)O)NC1=O` [caspofungin], for which, in series [2], the “sensitivity of mutant LEM3-Δ” value is recorded as “not among the most sensitive strains”.
Consider `OC(Cn1cncn1)(Cn1cncn1)c1ccc(F)cc1F` [fluconazole], for which the “sensitivity of mutant LEM3-Δ” value in series [2] is “not among the most sensitive strains”.
